Data as given in patent US6353029B1, “Storage stable tretinoin and 4-hydroxyanisole containing topical composition” (Bristol-Myers Squibb Company, priority 2000, dated 2002).
Like-named read-outs stand apart in the source and are kept apart here.

What was measured:
[1] = cited from earlier work
[2] = Physical and chemical stability of tretinoin/4-HA cream compositions; format: physicochemical; settings: creams with other emulsifiers and thickeners added, containing 4-HA
Description: In an effort to develop a pharmaceutically elegant dermatological composition containing tretinoin and 4-HA and having long term storage stability (as hereinafter defined), the present inventors incorporated the tretinoin and 4-HA in cream compositions. The oil-in-water emulsion based creams broke. Most likely, this was due to the 4-HA component as it is soluble in both the oil phase and water phase.

stability of tretinoin [2]: very unstable
SMILES: CC1=C(/C=C/C(C)=C/C=C/C(C)=C/C(=O)O)C(C)(C)CCC1 [tretinoin, all-trans retinoic acid]
shelf life of tretinoin ([1]; aqueous gel with Cremophor RH40 as solubilizing agent): 3 months
shelf life of tretinoin ([1]; aqueous gel without Cremophor RH40): 10 months
shelf life of tretinoin ([1]; propylene glycol-alcohol solution at 25° C, 0.05% tretinoin): 6.7 months
